Experimental data published in patent publication US20240132498A1, “CRYSTALLINE FORMS OF 5-(3,4-DIFLUOROBENZYL)-8-((1R,4R)-4-METHYLCYCLOHEXYL)-6,9-DIOXO-2,5,8-TRIAZASPIRO[3.5]NONANE-2-CARBALDEHYDE” (Cytokinetics, Incorporated, priority 2022, published 2024).

Legend:
[1] = molecular target: T1, CYP3A4-M (Homo sapiens, UniProt P08684); test: Time-dependent inhibition of CYP450 enzymes in human liver microsomes: CYP3A4-M (midazolam probe); format: in vitro ADME; conditions: for (% Activity NADPH T0)/(% Activity NADPH T30): CYP3A4-M (midazolam probe); for fold change in enzyme activity (time dependent inhibition), 3A4: human liver microsomes, midazolam probe, time zero vs 30 minutes incubation, 25 and 50 μM
T1 construct: from tissue; host or cells: pooled human liver microsomes
T1 sequence (P08684 whole entry): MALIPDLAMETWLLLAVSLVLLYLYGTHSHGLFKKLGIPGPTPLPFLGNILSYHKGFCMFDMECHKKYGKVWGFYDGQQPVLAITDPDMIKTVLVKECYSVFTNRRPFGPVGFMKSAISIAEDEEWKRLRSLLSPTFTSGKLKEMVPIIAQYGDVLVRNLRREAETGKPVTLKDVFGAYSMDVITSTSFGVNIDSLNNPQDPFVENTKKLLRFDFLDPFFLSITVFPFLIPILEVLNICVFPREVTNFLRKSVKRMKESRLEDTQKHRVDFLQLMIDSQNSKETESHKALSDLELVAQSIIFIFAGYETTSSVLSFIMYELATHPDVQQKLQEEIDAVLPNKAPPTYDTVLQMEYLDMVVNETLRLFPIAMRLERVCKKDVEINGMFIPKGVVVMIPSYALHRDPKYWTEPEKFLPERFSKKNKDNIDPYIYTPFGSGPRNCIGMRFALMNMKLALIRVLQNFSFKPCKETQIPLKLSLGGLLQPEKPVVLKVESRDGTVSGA
Method: (§1) An assessment of the time-dependent Inhibitory Potential of the test compounds against Principal Human Cytochrome P450 Isozymes using Human Liver Microsomes was also carried out using standard methods (Grimm et al, Drug Metab. Dispos., Jul; 37(7):1355-70. doi: 10.1124/dmd.109.026716, 2009). Pooled human microsomes and selective CYP probe substrates were used for in vitro assessment of test compounds at 25 and 50 μM as time-dependent inhibitors of […] human hepatic cytochrome P450 isozymes (CYP1A2, 2B6, 2C9, 2C19, 2D6, and 3A4). LC-MS/MS was used to quantify metabolite formation. The inhibition of each P450 enzyme in human liver microsomes was measured as the percentage decrease in the activity of marker metabolite formation as measured by LC-MS/MS compared to non-inhibited controls (=100% activity) at time zero and after 30 minutes incubation. The occurrence of any time dependent inhibition was then expressed as the fold change in enzyme activity at time zero relative to the activity after 30 minutes incubation. The time dependent inhibition for the compound 5-(3,4-difluorobenzyl)-8-((1 r,4r)-4-methylcyclohexyl)-6,9-dioxo-2,5, 8-triazaspiro [3.5]nonane-2-carbaldehyde (Compound 1) against CYP1A2, […], CYP2C8, CYP2C9, CYP2C19, CYP2D6, CYP3A4-M and CYP3A4-T is shown in Table B-12.

[2] = molecular target: T2, CYP3A4 (Homo sapiens, UniProt P08684); test: as above; format: in vitro ADME; conditions: human, pooled human liver microsomes, CYP3A4-M (midazolam probe); for activity at 30 min, 25 µM / activity at 30 min, 50 µM: 30 minutes incubation, read-out: % Activity NADPH T30; for activity at 0 min, 25 µM / activity at 0 min, 50 µM: time zero, read-out: % Activity NADPH T0
T2 construct: from tissue; host or cells: pooled human liver microsomes
T2 sequence (P08684 whole entry): as above
Method: as §1

[3] = Rat single dose pharmacokinetics; format: in vivo; conditions: male, plasma, iv, Sprague Dawley rats; for Vd: read-out: Vss
Method: Male Sprague Dawley rats were obtained from Zhejiang Vital River Laboratory Animal Technology Co., Ltd. The animals in IV group had free access to water and food. The animals in PO group were fasted overnight before dosing and provided with food 2 hours post dosing. The IV dose solution was prepared in 10% DMA/50% PG/40% HPOCD solution (40% w/v aqueous HPOCD) at a concentration of 1 mg/mL. The oral dosing suspension was prepared by suspending Test Article in 0.5% HPMC/0.1% Tween 80 in water at a concentration 0.2 mg/mL. Concentrations of IV and PO doses were measured at the end of the study. Pharmacokinetic parameters were calculated using the nominal dose values if the measured values were within 20% of the nominal values. Three rats were dosed IV via a bolus injection via caudal vein. Three rats per dose group were dosed by oral gavage. Blood samples were collected from the jugular vein cannula at predose, 5 (IV only),15, 30 minutes, and 1, 2, 4, 6, and 24 hours post-dose. Blood volumes were replaced with an equal amount of sterile 0.9% saline. Blood samples were centrifuged and the collected plasma was stored at −80° C. for subsequent analysis. Plasma samples were analyzed for Test Article concentrations using a LC/MS/MS method. Briefly, a 50 μL aliquot of each plasma sample was mixed with 100 μL of acetonitrile that contained an internal standard. The mixture was vortexed and centrifuged. Ten (10) μL of the resulting solution was injected onto a reverse-phase C18 column and the resultant peaks detected on a LC/MS/MS equipped with a turbo ionspray ionization source. Sample concentrations below the limit of quantification (BLQ) were treated as zero for pharmacokinetic calculations. Pharmacokinetic parameters were estimated from individual animals using noncompartmental analysis of the concentration-time data (Phoenix WinNonLin software, version 64; Pharsight, Mountain View, CA). The elimination rate constant (k) was calculated as the absolute value of the slope of the linear regression of logarithm (log) of the concentration versus time for the last three data points of the concentration-time profiles. Apparent elimination half-life (t1/2) values were calculated as In(2)/k. Area under the concentration-time curve (AUC) values were estimated using linear trapezoidal method. AUC values were calculated from the dosing time to the last measurable concentration. AUC∞ values were calculated as the sum of the corresponding AUC and the ratio of the last detectable concentration divided by k (AUCt-∞). Plasma clearance (CL) was calculated from Dose/AUC∞. Mean resident time (MRT) was estimated by moment analysis. Volume of distribution at steady state (Vss) was calculated from MRT∞×CL. Maximum concentration (Cmax) and time to reach Cmax (tmax) were recorded as observed. Bioavailability was calculated from the ratio of dose normalized AUC∞,po of individual rats/mean dAUC∞,iv×100% where dAUC was the dose normalized AUC value. Compounds tested were prepared in accordance with the synthetic procedures described herein.

[4] = molecular target: T3, CYP3A4-T (Homo sapiens, UniProt P08684); test: Time-dependent inhibition of CYP450 enzymes in human liver microsomes: CYP3A4-T (testosterone probe); format: in vitro ADME; conditions: for (% Activity NADPH T0)/(% Activity NADPH T30): CYP3A4-T (testosterone probe); for fold change in enzyme activity (time dependent inhibition), 3A4: human liver microsomes, testosterone probe, time zero vs 30 minutes incubation, 25 and 50 μM
T3 construct: from tissue; host or cells: pooled human liver microsomes
T3 sequence (P08684 whole entry): as above
Method: as §1

[5] = molecular target: T2, CYP3A4; test: as above; format: in vitro ADME; conditions: human, pooled human liver microsomes, CYP3A4-T (testosterone probe); for activity at 30 min, 25 µM / activity at 30 min, 50 µM: 30 minutes incubation, read-out: % Activity NADPH T30; for activity at 0 min, 25 µM / activity at 0 min, 50 µM: time zero, read-out: % Activity NADPH T0
Method: as §1

| Compound | (% Activity NADPH T0)/(% Activity NADPH T30) ([1]; 25 μM) | (% Activity NADPH T0)/(% Activity NADPH T30) ([1]; 50 μM) | fold change in enzyme activity (time dependent inhibition), 3A4 [1] [fold] | activity at 30 min, 25 µM [2] [%] | activity at 0 min, 25 µM [2] [%] | activity at 30 min, 50 µM [2] [%] | activity at 0 min, 50 µM [2] [%] | clearance [3] [mL/min/kg] | half-life [3] [h] | Vd [3] [L/kg] | (% Activity NADPH T0)/(% Activity NADPH T30) ([4]; 25 μM) | (% Activity NADPH T0)/(% Activity NADPH T30) ([4]; 50 μM) | fold change in enzyme activity (time dependent inhibition), 3A4 [4] [fold] | activity at 30 min, 25 µM [5] [%] | activity at 0 min, 25 µM [5] [%] | activity at 30 min, 50 µM [5] [%] | activity at 0 min, 50 µM [5] [%] |
| --- | --- | --- | --- | --- | --- | --- | --- | --- | --- | --- | --- | --- | --- | --- | --- | --- | --- |
| C[C@H]1CC[C@H](N2CC(=O)N(Cc3ccc(F)c(F)c3)C3(CN(C=O)C3)C2=O)CC1 [Compound 1, 5-(3,4-difluorobenzyl)-8-((1r,4r)-4-methylcyclohexyl)-6,9-dioxo-2,5,8-triazaspiro[3.5]nonane-2-carbaldehyde] | 0.8 | 0.7 | ≤ 1.2 | 88 | 70 | 78 | 57 | 52.6 | 3.34 | 13 | 0.9 | 0.8 | ≤ 1.2 | 90 | 80 | 98 | 83 |
| O=CN1CC2(C1)C(=O)N([C@H]1CC[C@H](C(F)F)CC1)CC(=O)N2Cc1ccc(C(F)(F)F)cc1 [Comparator E, 8-((1r,4r)-4-(difluoromethyl)cyclohexyl)-6,9-dioxo-5-(4-(trifluoromethyl)benzyl)-2,5,8-triazaspiro[3.5]nonane-2-carbaldehyde] |  |  |  |  |  |  |  | 18.8 | 5.4 | 8.23 |  |  |  |  |  |  |  |

Results, then the compound that gave them:

| (% Activity NADPH T0)/(% Activity NADPH T30) ([1]; 25 μM) | (% Activity NADPH T0)/(% Activity NADPH T30) ([1]; 50 μM) | fold change in enzyme activity (time dependent inhibition), 3A4 [1] [fold] | activity at 30 min, 25 µM [2] [%] | activity at 0 min, 25 µM [2] [%] | activity at 30 min, 50 µM [2] [%] | activity at 0 min, 50 µM [2] [%] | clearance [3] [mL/min/kg] | half-life [3] [h] | Vd [3] [L/kg] | (% Activity NADPH T0)/(% Activity NADPH T30) ([4]; 25 μM) | (% Activity NADPH T0)/(% Activity NADPH T30) ([4]; 50 μM) | fold change in enzyme activity (time dependent inhibition), 3A4 [4] [fold] | activity at 30 min, 25 µM [5] [%] | activity at 0 min, 25 µM [5] [%] | activity at 30 min, 50 µM [5] [%] | activity at 0 min, 50 µM [5] [%] | Compound |
| --- | --- | --- | --- | --- | --- | --- | --- | --- | --- | --- | --- | --- | --- | --- | --- | --- | --- |
|  |  |  |  |  |  |  | 8.23 | 4.84 | 2.98 |  |  |  |  |  |  |  | CC(=O)N1CC2(C1)C(=O)N(c1ccc(C#N)cc1F)CC(=O)N2Cc1ccc(C(F)(F)F)cc1 [Comparator D, 4-(2-acetyl-6,9-dioxo-5-(4-(trifluoromethyl)benzyl)-2,5,8-triazaspiro[3.5]nonan-8-yl)-3-fluorobenzonitrile] |
|  |  |  |  |  |  |  | 29.6 | 6.48 | 15.1 |  |  |  |  |  |  |  | O=CN1CC2(C1)C(=O)N(c1ccc(F)cc1F)CC(=O)N2Cc1ccc(Cl)cc1 [Comparator A, 5-(4-chlorobenzyl)-8-(2,4-difluorophenyl)-6,9-dioxo-2,5,8-triazaspiro[3.5]nonane-2-carbaldehyde] |
| 1.6 | 1.7 | > 1.5 | 48 | 75 | 33 | 57 | 20.2 | 3.3 | 5.2 | 1.8 | 1.8 | > 1.5 | 23 | 41 | 19 | 35 | O=C1[C@H](C2COC2)N(Cc2ccc(C(F)(F)F)cc2)C(=O)CN1c1ncc(Cl)cc1F [Comparator C, (S)-1-(5-chloro-3-fluoropyridin-2-yl)-3-(oxetan-3-yl)-4-(4-(trifluoromethyl)benzyl)piperazine-2,5-dione, reference compound] |
